“Also recorded” adds a separate entry of the source.

Holding throughout (assay type): cell-based
In assay [1] the test system is Hela cells. Kind of assay: Clonogenic assay, Hela. Particulars: for colony formation relative to control (100%): washout, ~10 days. How it is done:
Clonogenic assay. Hela cells were seeded into 6 well plates at a density of 1000 cells per well. Cells were treated for 24 h. Cells were then treated with and without UCN-01 (100 nM) for 3 h. All drugs were washed out and cells were left to grow for approximately 10 days. Cells were fixed using Acetic acid:methanol:H2O, (10:10:80), dried and stained with 0.4% crystal violet in 20% ethanol. Qualitative images of representative results are presented. For quantification, colonies were solubilized (1% acetic acid, 30% ethanol) and absorbance values at 595 nm were read. Values are expressed as a percentage relative to untreated cells, with untreated cells set to 100%±SD. Experiments were conducted in triplicate, three independent times. Student's two-tailed unpaired t test was conducted for statistics.

In assay [2] the test system is mouse embryonic fibroblasts (WT and TDG−/−). Nature of the assay: γ-H2AX immunofluorescence in WT and TDG−/− MEFs. The procedure: (§1) Immunofluorescence. Cells were grown on coverslips, treated with the indicated drugs, fixed and stained. To detect DNA damage induction and repair, antibodies against 53BP1 (Bethyl) and γ-H2AX (Upstate) were used with Alexa Fluor-conjugated secondary antibodies (Invitrogen). All cells were counter-stained with DAPI (Molecular probes). Images were captured using a 40× or 100× objective mounted on an inverted microscope (Eclipse TE2000S; Nikon) with a CCD camera (Photometrics Cascade 512F; Roper Scientific) powered by NIS Elements AR (version 3.10) software (Nikon). For quantitative analysis, individual nuclei were identified using DAPI staining and used to define region of interests (ROI), which were then transposed onto other channels. The sum intensity per nuclei from a minimum of 50 nuclei was averaged±SEM.

Assay [3] has as its system Hela cells. Kind of assay: Immunofluorescence of DNA damage foci (γ-H2AX, 53BP1, RPA). How it is done:
as §1

Assay [4] concerns Hela cells stably expressing GFP:histone H2B. Kind of assay: Time-lapse video microscopy of mitosis. The procedure:
Time-lapse video microscopy. Hela cells stably expressing GFP:histone H2B were seeded into 6 well plates and synchronized in S phase using thymidine (2 mM). […] Where appropriate, UCN-01 (100 nM) was added to wells before being supplemented with HEPES (25 mM), layered with mineral oil (Sigma) and placed into a housing chamber which maintained the temperature at 37° C. Using a Nikon TE2000 microscope (Nikon) controlled by MetaMorph software (Molecular Devices), brightfield and fluorescent images were captured every 5 minutes for up to 48 h. Individual movies were analyzed manually and a minimum of 100 cells per treatment scored for the indicated measurements. For montages, selected frames representing different cell morphologies are presented.

Assay [5] concerns Hela cells. Kind of assay: Chk1 phosphorylation (Ser-345) in lysates. How it is done:
Hela cells were treated for 24 or 48 h continuous treatment or of either 50 or 200 μM BDM or 24 h followed by 24 h in the absence of drugs. […] Quantification of the average fluorescence per nucleus is shown on the right. For γ-H2AX: *P=8.9×10^−28 vs. untreated 24 h; **P=2.1×10^−31 vs. untreated 24 h; †P=5.2×10^−45 vs. untreated 48 h. For 53BP1: *P=4.3×10^−20 vs. untreated 24 h; **P=4.2×10^−41 vs. untreated 24 h; †P=2.0×10^−52 vs. untreated 48 h. For RPA: *P=2.5×10^−16 vs. untreated 24 h; **P=2.8×10^−52 vs. untreated 24 h; †P=3.3×10-^58 vs. untreated 48 h. […] Total Chk1 and alpha tubulin were used to determine loading.

Assay [6] deals with Hela cells. Kind of assay: Cell viability MTS assay, Hela. To be noted: for cell viability, BDM alone: 3.125-200 μM, 48 h continuous. The procedure:
(§2) Cell viability and apoptosis assays. Hela cells were seeded into 96 well plates at a density of 1500 cells per well. Cells were treated with BDM (3.125-200 μM) for 24 h. After this time cells were additionally treated either with UCN-01 (100 nM), Chk2 inhibitor (100 nM) or Gö6976 (200 nM) for an additional 24 h. MTS reagent (CellTiter 96® AQueous Proliferation Assay, Promega) was added to each well for 4 h before the absorbance values at 490 nm was read. Experiments were conducted in triplicate, 3 independent times. Data presented are the average absorbance values, relative to control±SD. For apoptosis determination, cells seeded and treated as stated above were stained with Guava Nexin Reagent® (Millipore). Analysis was conducted using the Easycyte module and Cytosoft Software® (Millipore). Experiments were conducted 3 independent times, collecting 2000 events each time. Data shown is the average±SD.
On the technique in general: Formazan colour is commonly taken as a measure of viable cells.

In assay [7] the test system is U2932 B cell lymphoma cells. Nature of the assay: Cell cycle profile by FACS, U2932. How it is done: (§3) DNA content analysis via flow cytometry. Following indicated drug treatments, cells were fixed with 70% ethanol. For analysis, cells were stained with propidium iodide, RNase A and sodium citrate. Cells were incubated at 37° C. for 30 minutes before being analyzed using a Becton Dickinson single laser three-fluorescence FACScan flow analyzer and Cell Quest software (Becton Dickinson). DNA content was acquired from 10,000 events and FlowJo software was used to process the data.

The test system of assay [8] is Hela cells. Nature of the assay: EdU incorporation (DNA synthesis). To be noted: EdU 10 μM, 12 h. The procedure:
EdU incorporation. Hela cells were treated with nocodazole for 14 h after which time mitotic cells were collected by mechanical shake-off. Cells were washed twice with medium and re-plated. BDM and EdU (10 μM) (Click-IT™ EdU imaging kit, Invitrogen) were added 2 h later, when the cells were fully adherent and still in G1, and incubated for an additional 12 h. Cells were fixed and stained according to the manufacturer's protocol. Quantification of EdU incorporation was performed as described for antibody detection.

The test system of assay [9] is Hela cells. Nature of the assay: Cell cycle profile by FACS (DNA content), Hela. How it is done: as §3
(In flow cytometry, cells or beads pass a laser one at a time.)

The subject of assay [10] is PANC1, BXPC3, MCF-7, MDA-MB-435, OVCAR 5 and 10 cells. Kind of assay: Cell cycle profile by FACS, panel of cancer cell lines. To be noted: 24 h. The procedure: as §3
The test system of assay [11] is SK28 cells. Nature of the assay: SK28 cell viability (MTS assay). To be noted: SK28, concentration-dependent, quadruplicate. The procedure:
(§4) Tests were conducted in quadruplicate.

Assay [12] deals with SK28 cells. Kind of assay: SK28 clonogenic assay. To be noted: SK28, concentration-dependent, quadruplicate. The procedure: as §4
Assay [13] has as its system Hela cells. Nature of the assay: Apoptosis assay (Guava Nexin Reagent). To be noted: BDM 200 μM followed by Chk1 inhibitor; p<0.01 vs. control. How it is done:
as §2

With `Cn1c(CCCC(=O)O)nc2cc(N(CCCl)CCCl)ccc21` [BDM, Bendamustine], the “colony formation relative to control (100%)” value amounted to 87.8±11.2% in [1] (50 μM BDM 24 h) and 3.5±1.3% in assay [1] (200 μM BDM 24 h). Besides, the “reduction in clonogenic survival” value in [1] (200 uM BDM) was 95%. In addition, the “γ-H2AX staining, TDG−/− MEFs versus wildtype MEFs” value in assay [2] (10 μM BDM, 24 h) is “increased γ-H2AX staining”. Moreover, in [2] (48 h continuous treatment), the “repair of DNA damage, TDG−/− MEFs versus wildtype MEFs” value is listed as “reduced ability to repair the DNA damage”. For the same compound, the “γ-H2AX, RPA and 53BP1 foci” value in assay [3] (50 μM BDM 24 h, then 24 h after washout) was “reduced to levels comparable to untreated cells”; in assay [3] (50 μM BDM, 24 h) it was “accumulated γ-H2AX, RPA and 53BP1 foci”; in [3] (200 μM BDM 24 h, after drug removal) it was “foci persisted after drug was removed”; in assay [3] (200 μM BDM, 24 h), “an increase in γ-H2AX, RPA and 53BP1”. In [3] (50 μM BDM, 48 h continuous), the “γ-H2AX, RPA and 53BP1 staining” value is “reduced to control cells”. The DNA damage foci result in [3] (200 μM BDM, 48 h continuous) is reported as “not reduced”. Besides, the “53BP1, RPA and γ-H2AX nuclear foci” value in assay [3] (dose dependence) was “increased in a dose-dependent manner”. The “fate of cells forced into mitosis” value is “progress through mitosis relatively normally” in assay [4] (50 μM BDM + Chk1 inhibition); “majority failing to exit and instead die in mitosis” in assay [4] (200 μM BDM + Chk1 inhibition). The “percentage of cells entering mitosis” value in assay [4] (50 μM BDM, over 24 h) was “caused a reduction in the percentage of cells entering mitosis”. Also, in [4] (200 μM BDM), the mitotic index entry is “reduced mitotic index”. Also, the mitotic figures entry in assay [4] (200 μM BDM + Chk1 inhibition) was “highly abnormal”. Moreover, the “Chk1 phosphorylation (Ser-345)” value in assay [5] (50 μM BDM, 48 h) is on record as “no signal was observed”; in assay [5] (200 μM BDM, 48 h) it was “detectable pChk1 was still present”; in assay [5] (24 h treatment), “dose-dependently phosphorylated”. The “cell viability, BDM alone” value in assay [6] is recorded as “did not reduce cell viability as compared to control treatment”; in assay [6] (listed as bendamustine) it was “not particularly effective at killing Hela cells”. The cell cycle arrest entry in assay [7] (10 μM BDM) was “induced a G2 arrest”; in assay [7] (25 μM BDM), “S phase arrest”; in assay [7] (50 μM BDM), “induced an S phase arrest”; in assay [9] (200 μM BDM, after washout or 48 h continuous), “maintained after drug washout, or 48 h continuous treatment”; in [10] (50 μM BDM) it was “G2 arrest”; in assay [10] (200 μM BDM), “S phase arrest”. For the same compound, the “EdU incorporation relative to untreated (100%)” value in assay [8] (50 μM BDM) came out at 98.0±4.1%; in assay [8] (200 μM BDM), 64.7±2.6%. Further, the cell cycle profile entry in [9] (50 μM BDM 24 h, then another 24 h with or without BDM) is given as “displayed a normal cell cycle profile”; in assay [9] (Hela synchronized in G1, 200 μM BDM, 24 h), “arrested in S phase”; in assay [9] (Hela synchronized in G1, 25-100 μM BDM, 24 h), “accumulated as 4N DNA content indicating a G2/M delay”.
Consider `O=c1cc(N2CCOCC2)oc2c(-c3cccc4c3sc3ccccc34)cccc12` [NU7441], for which the “repair of BDM-induced damage (γ-H2AX)” value in assay [3] (50 μM BDM + NU7441 10 μM, 48 h) is reported as “did not block repair of BDM-induced damage”.
For `NC(=O)c1ccc2nc(-c3ccc(Oc4ccc(Cl)cc4)cc3)[nH]c2c1` [pharmacological inhibitor of Chk2], the “sensitization to killing by BDM” value in assay [6] (any BDM concentration (3.125-200 μM), Chk2 inhibitor 100 nM) is “did not sensitize to killing by any concentration of BDM”.
`C=CC1=C(C(=O)O)N2C(=O)[C@@H](NC(=O)/C(=N\OCC(=O)O)c3csc(N)n3)[C@H]2SC1` [cefixime, (6R,7R)-7-{[2-(2-amino-1,3-thiazol-4-yl)-2-(carboxymethoxyimino)acetyl]amino}-3-ethenyl-8-oxo-5-thia-1-azabicyclo[4.2.0]oct-2-ene-2-carboxylic acid]: the cell viability result in [11] is on record as “reduce cell viability”. For the same compound, the “clonogenic capacity / colony-forming ability” value in assay [12] is “reduce cell viability and clonogenic capacity; also recorded: reduction of clonogenic capacity”.
As to `Cn1c2ccccc2c2c3c(c4c5ccccc5n(CCC#N)c4c21)CNC3=O` [Gö6976], the “percentage of apoptotic cells” value in assay [13] is given as “exhibited an increase in the percentage of apoptotic cells”.
Take `CON` [MX, methoxyamine]: the “γ-H2AX foci, combination with BDM” value in assay [3] (50 μM BDM + methoxyamine 6 mM, 48 h) is given as “significantly higher levels of γ-H2AX foci than BDM alone”.

The values above are taken from patent US10220051B2, “Combination of DNA repair inhibition with bendamustine or gemcitabine in the treatment of cancer” (Institute for Cancer Research, priority 2012, dated 2019).
